Read-outs that look alike come from different tables or passages of the source. Square brackets hold non-standard residues; d marks the D form. Peptide text beside a SMILES is read from it. * marks the point of attachment. Phe(4-tBu) = CC(C)(C)c1ccc(C[C@H](N)C(=O)O)cc1; Phe(3-Cl) = N[C@@H](Cc1cccc(Cl)c1)C(=O)O; Phe(4-Cl) = N[C@@H](Cc1ccc(Cl)cc1)C(=O)O; Phe(4-I) = N[C@@H](Cc1ccc(I)cc1)C(=O)O; Dab(3S-OH) = NC[C@H](O)[C@H](N)C(=O)O; His(τ-Me) = Cn1cnc(C[C@H](N)C(=O)O)c1; His(π-Me) = Cn1cncc1C[C@H](N)C(=O)O; 2Pal = N[C@@H](Cc1ccccn1)C(=O)O; ΔZArg = N=C(N)NCC/C=C(\N)C(=O)O; dOrn = NCCC[C@@H](N)C(=O)O; Pra = C#CC[C@H](N)C(=O)O; NH(CH2)4NH2 = NCCCCN*
Tests used:
[1] = target: N-type calcium channels (Cav2.2) (Rattus norvegicus (Rat), UniProt Q02294); assay: biochemical; format: binding
[2] = tested on: Pseudomonas aeruginosa ATCC 27853; assay: MIC, broth microdilution (CLSI), reference strain; settings: CAMHB
[3] = tested on: Escherichia coli ATCC 25922; assay: MIC, broth microdilution (CLSI), reference strain; settings: CAMHB
[4] = tested on: Staphylococcus aureus ATCC 13709; assay: MIC, broth microdilution (CLSI), reference strain; settings: CAMHB
[5] = tested on: Acinetobacter baumannii ATCC 19606; assay: MIC, broth microdilution (CLSI), reference strain; settings: CAMHB
[6] = class symbol, rat cerebral cortex, [125I]ω-conotoxin GVIA 0.001 nM, 30 minutes at room temperature, read-out: IC50 Cav2.2

Structure (SMILES) | IC50 [1, 6] [nM] | Pa: MIC Pseudomonas aeruginosa ATCC 27853 [2] | Ec: MIC Escherichia coli ATCC 25922 [3] | Sa: MIC Staphylococcus aureus ATCC 13709 [4] | Ab: MIC Acinetobacter baumannii ATCC 19606 [5] | IC50 [1] [nM] | IC50 ([1]; value in brackets, rat cerebral cortex, [125I]ω-conotoxin GVIA 0.001 nM, read-out: IC50 Cav2.2) [nM]
C[C@H](NC(=O)[C@@H](NC(=O)[C@@H](NC(=O)[C@@H](N)CCCCN)[C@@H](O)CN)[C@@H](O)CN)C(=O)N[C@H](CCCN)C(=O)N1CCC[C@H]1C(=O)N[C@@H](Cc1cnc[nH]1)C(=O)N[C@@H](CCCCN)C(=O)N/C(=C\CCNC(=N)N)C(=O)N[C@@H](CCCCN)C(=O)NCCCCN [22.24] (H-K[Dab(3S-OH)][Dab(3S-OH)]A[dOrn]PHK[ΔZArg]K-{NH(CH2)4NH2}) | < 30 | − (>32 μg/mL) | − (>32 μg/mL) | ++ (≤8 μg/mL) | − (>32 μg/mL) | – | –
C[C@H](NC(=O)[C@@H](NC(=O)[C@@H](N)CCCCN)[C@@H](O)CN)C(=O)NCC(=O)N[C@H](CCCN)C(=O)N1CCC[C@H]1C(=O)N[C@@H](Cc1cnc[nH]1)C(=O)N[C@@H](CCCCN)C(=O)N/C(=C\CCNC(=N)N)C(=O)N[C@@H](CCCCN)C(=O)NCCCCN [24.1] (H-K[Dab(3S-OH)]AG[dOrn]PHK[ΔZArg]K-{NH(CH2)4NH2}) | < 30 | + (≤32 μg/mL) | ++ (≤8 μg/mL) | ++ (≤8 μg/mL) | + (≤32 μg/mL) | – | –
C[C@H](NC(=O)[C@@H](NC(=O)[C@@H](N)CCCCN)[C@@H](O)CN)C(=O)NCC(=O)N[C@H](CCCN)C(=O)N1CCC[C@H]1C(=O)N[C@@H](Cc1cncn1C)C(=O)N[C@@H](CCCCN)C(=O)N/C(=C\CCNC(=N)N)C(=O)N[C@@H](CCCCN)C(=O)NCCCCN [24.14] (H-K[Dab(3S-OH)]AG[dOrn]P[His(π-Me)]K[ΔZArg]K-{NH(CH2)4NH2}) | < 30 | + (≤32 μg/mL) | ++ (≤8 μg/mL) | ++ (≤8 μg/mL) | − (>32 μg/mL) | – | –
C[C@H](NC(=O)[C@@H](NC(=O)[C@@H](N)CCCCN)[C@@H](O)CN)C(=O)NCC(=O)N[C@H](CCCN)C(=O)N1CCC[C@H]1C(=O)N[C@@H](Cc1cn(C)cn1)C(=O)N[C@@H](CCCCN)C(=O)N/C(=C\CCNC(=N)N)C(=O)N[C@@H](CCCCN)C(=O)NCCCCN [24.15] (H-K[Dab(3S-OH)]AG[dOrn]P[His(τ-Me)]K[ΔZArg]K-{NH(CH2)4NH2}) | < 30 | + (≤32 μg/mL) | ++ (≤8 μg/mL) | ++ (≤8 μg/mL) | − (>32 μg/mL) | – | –
C[C@H](NC(=O)[C@@H](NC(=O)[C@@H](N)CCCCN)[C@@H](O)CN)C(=O)NCC(=O)N[C@H](CCCN)C(=O)N1CCC[C@H]1C(=O)N[C@@H](Cc1ccccn1)C(=O)N[C@@H](CCCCN)C(=O)N/C(=C\CCNC(=N)N)C(=O)N[C@@H](CCCCN)C(=O)NCCCCN [24.17] (H-K[Dab(3S-OH)]AG[dOrn]P[2Pal]K[ΔZArg]K-{NH(CH2)4NH2}) | < 30 | − (>32 μg/mL) | ++ (≤8 μg/mL) | ++ (≤8 μg/mL) | − (>32 μg/mL) | – | –
C[C@H](NC(=O)[C@@H](NC(=O)[C@@H](N)CCCCN)[C@@H](O)CN)C(=O)NCC(=O)N[C@H](CCCN)C(=O)N1CCC[C@H]1C(=O)N[C@@H](Cc1ccc(O)cc1)C(=O)N[C@@H](CCCCN)C(=O)N/C(=C\CCNC(=N)N)C(=O)N[C@@H](CCCCN)C(=O)NCCCCN [24.20] (H-K[Dab(3S-OH)]AG[dOrn]PYK[ΔZArg]K-{NH(CH2)4NH2}) | < 30 | − (>32 μg/mL) | ++ (≤8 μg/mL) | ++ (≤8 μg/mL) | − (>32 μg/mL) | – | –
C[C@H](NC(=O)[C@@H](NC(=O)[C@@H](N)CCCCN)[C@@H](O)CN)C(=O)NCC(=O)N[C@H](CCCN)C(=O)N1CCC[C@H]1C(=O)N[C@@H](CC(N)=O)C(=O)N[C@@H](CCCCN)C(=O)N/C(=C\CCNC(=N)N)C(=O)N[C@@H](CCCCN)C(=O)NCCCCN [24.22] (H-K[Dab(3S-OH)]AG[dOrn]PNK[ΔZArg]K-{NH(CH2)4NH2}) | < 30 | − (>32 μg/mL) | ++ (≤8 μg/mL) | ++ (≤8 μg/mL) | − (>32 μg/mL) | – | –
C#CC[C@H](NC(=O)[C@@H]1CCCN1C(=O)[C@@H](CCCN)NC(=O)CNC(=O)[C@H](C)NC(=O)[C@@H](NC(=O)[C@@H](N)CCCCN)[C@@H](O)CN)C(=O)N[C@@H](CCCCN)C(=O)N/C(=C\CCNC(=N)N)C(=O)N[C@@H](CCCCN)C(=O)NCCCCN [24.67] (H-K[Dab(3S-OH)]AG[dOrn]P[Pra]K[ΔZArg]K-{NH(CH2)4NH2}) | < 30 | + (≤32 μg/mL) | ++ (≤8 μg/mL) | − (>32 μg/mL) | − (>32 μg/mL) | – | –
C[C@H](NC(=O)[C@@H](NC(=O)[C@@H](N)CCCCN)[C@@H](O)CN)C(=O)NCC(=O)N[C@H](CCCN)C(=O)N1CCC[C@H]1C(=O)N[C@@H](Cc1cn(C)cn1)C(=O)N[C@@H](CCCCN)C(=O)N/C(=C\CCNC(=N)N)C(=O)O [24.76] (H-K[Dab(3S-OH)]AG[dOrn]P[His(τ-Me)]K[ΔZArg]-OH) | > 300 | − (>32 μg/mL) | − (>32 μg/mL) | + (≤32 μg/mL) | − (>32 μg/mL) | – | –
C[C@H](NC(=O)[C@@H](NC(=O)[C@@H](N)CCCCN)[C@@H](O)CN)C(=O)NCC(=O)N[C@H](CCCN)C(=O)N1CCC[C@H]1C(=O)N[C@@H](Cc1cccc(Cl)c1)C(=O)N[C@@H](CCCCN)C(=O)N/C(=C\CCNC(=N)N)C(=O)O [24.88] (H-K[Dab(3S-OH)]AG[dOrn]P[Phe(3-Cl)]K[ΔZArg]-OH) | > 300 | − (>32 μg/mL) | ++ (≤8 μg/mL) | ++ (≤8 μg/mL) | − (>32 μg/mL) | – | –
C[C@H](NC(=O)[C@@H](NC(=O)[C@@H](N)CCCCN)[C@@H](O)CN)C(=O)NCC(=O)N[C@H](CCCN)C(=O)N1CCC[C@H]1C(=O)N[C@@H](Cc1ccc(C(C)(C)C)cc1)C(=O)N[C@@H](CCCCN)C(=O)N/C(=C\CCNC(=N)N)C(=O)O [24.93] (H-K[Dab(3S-OH)]AG[dOrn]P[Phe(4-tBu)]K[ΔZArg]-OH) | > 300 | − (>32 μg/mL) | ++ (≤8 μg/mL) | ++ (≤8 μg/mL) | − (>32 μg/mL) | – | –
C[C@H](NC(=O)[C@@H](NC(=O)[C@@H](N)CCCCN)[C@@H](O)CN)C(=O)NCC(=O)N[C@H](CCCN)C(=O)N1CCC[C@H]1C(=O)N[C@@H](Cc1ccc(Cl)cc1)C(=O)N[C@@H](CCCCN)C(=O)N/C(=C\CCNC(=N)N)C(=O)O [24.97] (H-K[Dab(3S-OH)]AG[dOrn]P[Phe(4-Cl)]K[ΔZArg]-OH) | > 300 | − (>32 μg/mL) | ++ (≤8 μg/mL) | ++ (≤8 μg/mL) | − (>32 μg/mL) | – | –
C[C@H](NC(=O)[C@@H](NC(=O)[C@@H](N)CCCCN)[C@@H](O)CN)C(=O)NCC(=O)N[C@H](CCCN)C(=O)N1CCC[C@H]1C(=O)N[C@@H](Cc1ccc(I)cc1)C(=O)N[C@@H](CCCCN)C(=O)N/C(=C\CCNC(=N)N)C(=O)O [24.103] (H-K[Dab(3S-OH)]AG[dOrn]P[Phe(4-I)]K[ΔZArg]-OH) | > 300 | − (>32 μg/mL) | ++ (≤8 μg/mL) | ++ (≤8 μg/mL) | − (>32 μg/mL) | – | –
C[C@H](NC(=O)[C@@H](NC(=O)[C@@H](N)CCCCN)[C@@H](O)CN)C(=O)NCC(=O)N[C@H](CCCN)C(=O)N1CCC[C@H]1C(=O)N[C@@H](CC(N)=O)C(=O)N[C@@H](CCCCN)C(=O)N/C(=C\CCNC(=N)N)C(=O)O [24.112] (H-K[Dab(3S-OH)]AG[dOrn]PNK[ΔZArg]-OH) | – | − (>32 μg/mL) | − (>32 μg/mL) | + (≤32 μg/mL) | − (>32 μg/mL) | > 300 | 790

From patent US10626144B2, “Peptide derivatives and uses thereof” (Nosopharm, priority 2014, dated 2020)
